Measured values reported in US20250197372A1 (priority 2020, published 2025).
pIC50: −log10 of the molar value.

molecular target: T1, recombinant human GBA (beta-glucocerebrosidase) (Homo sapiens, UniProt P04062); assay: Beta-glucocerebrosidase (GBA, glucosylceramidase) assay (4-methylumbelliferyl-beta-D-pyranoside substrate, fluorescence); type: biochemical
T1 sequence (P04062 40-536): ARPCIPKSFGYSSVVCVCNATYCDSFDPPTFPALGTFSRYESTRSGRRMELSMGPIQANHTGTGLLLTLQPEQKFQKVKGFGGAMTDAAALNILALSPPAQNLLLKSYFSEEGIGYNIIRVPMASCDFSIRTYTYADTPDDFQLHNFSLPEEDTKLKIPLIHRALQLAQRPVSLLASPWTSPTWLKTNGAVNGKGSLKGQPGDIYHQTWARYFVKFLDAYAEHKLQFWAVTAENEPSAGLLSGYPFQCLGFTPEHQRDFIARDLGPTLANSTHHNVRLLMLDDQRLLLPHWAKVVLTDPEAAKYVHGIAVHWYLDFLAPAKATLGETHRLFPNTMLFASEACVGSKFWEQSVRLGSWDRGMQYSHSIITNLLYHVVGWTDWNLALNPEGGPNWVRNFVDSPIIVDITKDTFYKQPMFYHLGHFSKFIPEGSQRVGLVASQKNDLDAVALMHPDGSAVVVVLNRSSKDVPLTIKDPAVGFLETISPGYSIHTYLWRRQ
Experimental: Beta-glucocerebrosidase (GBA, also referred to glucosylceramidase): To analyze inhibitory effects of a test compound, commercially available recombinant human GBA was incubated with multiple dilutions of test compound for 60 minutes at 37° C. 4-methylumbelliferyl-beta-D-pyranoside was then introduced to the mixture as substrate. Following incubation for 60 minutes at 37° C., 1,4-methyllumbelliferone was generated, and the reaction was stopped with the stop solution (0.5 M glycine; 0.3 M NaOH, pH 10). 1,4-methyllumbelliferone was detected by fluorescence (excitation at 365 nm, emission at 440 nm). Relative fluorescence compared to untreated enzymatic activity and test compound concentration is then plotted as a function of percent inhibition. The IC50 was determined using a 4-PL curve fit as the measure of relative inhibitory activity of each test compound (see Table 3).

Compared with OC[C@@H]1[C@@H](O)[C@H](O)[C@@H](O)CN1CCc1ccc(CCNc2cc(Cl)cc(-c3ncon3)c2)cc1 [Compound 1113, (2R,3R,4R,5S)-1-{2-[4-(2-{[3-chloro-5-(1,2,4-oxadiazol-3-yl)phenyl]amino}ethyl)phenyl]ethyl}-2-(hydroxymethyl)piperidine-3,4,5-triol], OC[C@@H]1[C@@H](O)[C@H](O)[C@@H](O)CN1CCc1ccc(CCNc2cc(Cl)cc(-c3ccco3)c2)cc1 [Compound 1159, (2R,3R,4R,5S)-1-{2-[4-(2-{[3-chloro-5-(furan-2-yl)phenyl]amino}ethyl)phenyl]ethyl}-2-(hydroxymethyl)piperidine-3,4,5-triol] is 0.78 log units higher in pIC50: 5.20 for the first, 5.98 for the second. The second is the more potent here.

Compared with OC[C@@H]1[C@@H](O)[C@H](O)[C@@H](O)CN1CCCCCCNc1cc(Cl)cc(-c2cnccn2)c1 [Compound 1196, (2R,3R,4R,5S)-1-(6-{[3-chloro-5-(pyrazin-2-yl)phenyl]amino}hexyl)-2-(hydroxymethyl)piperidine-3,4,5-triol], OC[C@@H]1[C@@H](O)[C@H](O)[C@@H](O)CN1CCCCCCNc1ccc(-c2cnccn2)cc1Cl [Compound 1198, (2R,3R,4R,5S)-1-(6-{[2-chloro-4-(pyrazin-2-yl)phenyl]amino}hexyl)-2-(hydroxymethyl)piperidine-3,4,5-triol] is 0.54 log units lower in pIC50: 6.11 for the first, 5.57 for the second.

Compared with COc1cc(NCCc2ccc(CCN3C[C@H](O)[C@@H](O)[C@H](O)[C@H]3CO)cc2)cc(C2=CCOCC2)c1 [Compound 1154, (2R,3R,4R,5S)-1-{2-[4-(2-{[3-(3,6-dihydro-2H-pyran-4-yl)-5-methoxyphenyl]amino}ethyl)phenyl]ethyl}-2-(hydroxymethyl)piperidine-3,4,5-triol], COc1cc(NCCc2ccc(CCN3C[C@H](O)[C@@H](O)[C@H](O)[C@H]3CO)cc2)cc(C2=COCCO2)c1 [Compound 1155, (2R,3R,4R,5S)-1-{2-[4-(2-{[3-(5,6-dihydro-1,4-dioxin-2-yl)-5-methoxyphenyl]amino}ethyl)phenyl]ethyl}-2-(hydroxymethyl)piperidine-3,4,5-triol] is 0.32 log units lower in pIC50: 5.77 for the first, 5.45 for the second.

Going from COc1cc(NCCCCCCN2C[C@H](O)[C@@H](O)[C@H](O)[C@H]2CO)cc(C2CCCCC2)c1 [Compound 1148, (2R,3R,4R,5S)-1-{6-[(3-cyclohexyl-5-methoxyphenyl)amino]hexyl}-2-(hydroxymethyl)piperidine-3,4,5-triol] to COc1cc(CC2CCOC2)cc(NCCCCCCN2C[C@H](O)[C@@H](O)[C@H](O)[C@H]2CO)c1 (stereo partly drawn) [Compound 1141, (2R,3R,4R,5S)-2-(hydroxymethyl)-1-[6-({3-methoxy-5-[(oxolan-3-yl)methyl]phenyl}amino)hexyl]piperidine-3,4,5-triol], the pIC50 falls from 8.70 to 5.09 (3.61 log units). The first is the more potent here.

Compared with COc1cc(-c2ncco2)ccc1NCCCCCCN1C[C@H](O)[C@@H](O)[C@H](O)[C@H]1CO [Compound 1207, (2R,3R,4R,5S)-2-(hydroxymethyl)-1-(6-{[2-methoxy-4-(1,3-oxazol-2-yl)phenyl]amino}hexyl)piperidine-3,4,5-triol], OC[C@@H]1[C@@H](O)[C@H](O)[C@@H](O)CN1CCCCCCNc1ccc(-c2ncco2)cc1Cl [Compound 1203, (2R,3R,4R,5S)-1-(6-{[2-chloro-4-(1,3-oxazol-2-yl)phenyl]amino}hexyl)-2-(hydroxymethyl)piperidine-3,4,5-triol] is 0.33 log units higher in pIC50: 5.77 for the first, 6.10 for the second.

Going from COc1cc(NCCCCCCN2C[C@H](O)[C@@H](O)[C@H](O)[C@H]2CO)cc(C2=CCCO2)c1 [Compound 1147, (2R,3R,4R,5S)-1-(6-{[3-(4,5-dihydrofuran-2-yl)-5-methoxyphenyl]amino}hexyl)-2-(hydroxymethyl)piperidine-3,4,5-triol] to CS(=O)(=O)c1cc(NCCCCCCN2C[C@H](O)[C@@H](O)[C@H](O)[C@H]2CO)cc(-c2ncccn2)c1 [Compound 1128, (2R,3R,4R,5S)-2-(hydroxymethyl)-1-(6-{[3-methanesulfonyl-5-(pyrimidin-2-yl)phenyl]amino}hexyl)piperidine-3,4,5-triol], the pIC50 falls from 5.70 to 5.28 (0.42 log units).

Going from [N-]=[N+]=Nc1ccc(NCc2ccc(CN3C[C@H](O)[C@@H](O)[C@H](O)[C@H]3CO)cc2)c([N+](=O)[O-])c1 [Compound 1170, (2R,3R,4R,5S)-1-[(4-{[(4-azido-2-nitrophenyl)amino]methyl}phenyl)methyl]-2-(hydroxymethyl)piperidine-3,4,5-triol] to [N-]=[N+]=Nc1ccc(NCCc2cc(Br)cc(CCN3C[C@H](O)[C@@H](O)[C@H](O)[C@H]3CO)c2)c([N+](=O)[O-])c1 [Compound 1140, (2R,3R,4R,5S)-1-[2-(3-{2-[(4-azido-2-nitrophenyl)amino]ethyl}-5-bromophenyl)ethyl]-2-(hydroxymethyl)piperidine-3,4,5-triol], the pIC50 rises from 4.52 to 6.17 (1.65 log units).

Compared with OC[C@@H]1[C@@H](O)[C@H](O)[C@@H](O)CN1Cc1ccc(CNc2ccc(N3CCOCC3)cc2)cc1 [Compound 1068], Cc1cc(-c2ccco2)ccc1NCc1ccc(CN2C[C@H](O)[C@@H](O)[C@H](O)[C@H]2CO)cc1 [Compound 1324, (2R,3R,4R,5S)-1-{[4-({[4-(furan-2-yl)-2-methylphenyl]amino}methyl)phenyl]methyl}-2-(hydroxymethyl)piperidine-3,4,5-triol] is higher in pIC50: under 4.00 for the first, 4.47 for the second. The second is the more potent here.

[N-]=[N+]=Nc1ccc(NCCc2cc(CCN3C[C@H](O)[C@@H](O)[C@H](O)[C@H]3CO)cs2)c([N+](=O)[O-])c1 [Compound 1179, (2R,3R,4R,5S)-1-[2-(5-{2-[(4-azido-2-nitrophenyl)amino]ethyl}thiophen-3-yl)ethyl]-2-(hydroxymethyl)piperidine-3,4,5-triol] and [N-]=[N+]=Nc1ccc(NCCNc2cc(Cl)cc(CCN3C[C@H](O)[C@@H](O)[C@H](O)[C@H]3CO)c2)c([N+](=O)[O-])c1 [Compound 1143, (2R,3R,4R,5S)-1-{2-[3-({2-[(4-azido-2-nitrophenyl)amino]ethyl}amino)-5-chlorophenyl]ethyl}-2-(hydroxymethyl)piperidine-3,4,5-triol] are within 0.2 log units of each other in pIC50: 6.42 for the first, 6.39 for the second.

N#Cc1cc(Cl)cc(NCCc2ccc(CCN3C[C@H](O)[C@@H](O)[C@H](O)[C@H]3CO)cc2)c1 [Compound 1134, 3-chloro-5-{[2-(4-{2-[(2R,3R,4R,5S)-3,4,5-trihydroxy-2-(hydroxymethyl)piperidin-1-yl]ethyl}phenyl)ethyl]amino}benzonitrile] and OC[C@@H]1[C@@H](O)[C@H](O)[C@@H](O)CN1CCc1ccc(CCNc2cc(Cl)cc(C3=COCCO3)c2)cc1 [Compound 1161, (2R,3R,4R,5S)-1-{2-[4-(2-{[3-chloro-5-(5,6-dihydro-1,4-dioxin-2-yl)phenyl]amino}ethyl)phenyl]ethyl}-2-(hydroxymethyl)piperidine-3,4,5-triol] are within 0.2 log units of each other in pIC50: 5.63 for the first, 5.55 for the second.

[N-]=[N+]=Nc1ccc(NCCc2ccc(CCN3C[C@H](O)[C@@H](O)[C@H](O)[C@H]3CO)c3c2OCCO3)c([N+](=O)[O-])c1 [Compound 1173, (2R,3R,4R,5S)-1-[2-(8-{2-[(4-azido-2-nitrophenyl)amino]ethyl}-2,3-dihydro-1,4-benzodioxin-5-yl)ethyl]-2-(hydroxymethyl)piperidine-3,4,5-triol] and COc1cc(NCCc2ccc(CCN3C[C@H](O)[C@@H](O)[C@H](O)[C@H]3CO)cc2)cc(-c2ncccn2)c1 [Compound 1156, (2R,3R,4R,5S)-2-(hydroxymethyl)-1-{2-[4-(2-{[3-methoxy-5-(pyrimidin-2-yl)phenyl]amino}ethyl)phenyl]ethyl}piperidine-3,4,5-triol] are within 0.2 log units of each other in pIC50: 5.27 for the first, 5.15 for the second.

COCCc1ccc(CCCCCN2C[C@H](O)[C@@H](O)[C@H](O)[C@H]2CO)cc1 [Compound 1307, (2R,3R,4R,5S)-2-(hydroxymethyl)-1-{5-[4-(2-methoxyethyl)phenyl]pentyl}piperidine-3,4,5-triol] and COc1cc(-c2cnccn2)ccc1NCCCCCCN1C[C@H](O)[C@@H](O)[C@H](O)[C@H]1CO [Compound 1199, (2R,3R,4R,5S)-2-(hydroxymethyl)-1-(6-{[2-methoxy-4-(pyrazin-2-yl)phenyl]amino}hexyl)piperidine-3,4,5-triol] are within 0.2 log units of each other in pIC50: 5.30 for the first, 5.40 for the second.

Going from Cc1cc(NCc2ccc(CN3C[C@H](O)[C@@H](O)[C@H](O)[C@H]3CO)cc2)cc(-c2cccnn2)c1 [Compound 1052, (2R,3R,4R,5S)-2-(hydroxymethyl)-1-{[4-({[3-methyl-5-(pyridazin-3-yl)phenyl]amino}methyl)phenyl]methyl}piperidine-3,4,5-trio] to OC[C@@H]1[C@@H](O)[C@H](O)[C@@H](O)CN1Cc1ccc(CNc2cc(-c3ncccn3)cc(C3CC3)c2)cc1 [Compound 1013, (2R,3R,4R,5S)-1-{[4-({[3-cyclopropyl-5-(pyrimidin-2-yl)phenyl]amino}methyl)phenyl]methyl}-2-(hydroxymethyl)piperidine-3,4,5-triol], the pIC50 falls from 4.07 to under 4.00.
